Data reported in PubChem BioAssay (NCI).
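Protocol summary: plate cells (96-well), add compound at 5 concentrations, incubate 48 h, interpolate endpoints linearly. GI50 marks 50% less growth. TGI denotes the concentration required for complete inhibition of growth.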

Tests used:
Test in all cases: NCI-60 cell line screen, 48 h
786-0 renal = test system: 786-0 renal
A498 renal = test system: A498 renal
A549 NSCLC = test system: A549 NSCLC
ACHN renal = test system: ACHN renal
BT-549 breast = test system: BT-549 breast
CAKI-1 renal = test system: CAKI-1 renal
CCRF-CEM leukemia = test system: CCRF-CEM leukemia
COLO 205 colon = test system: COLO 205 colon
DU-145 prostate = test system: DU-145 prostate
EKVX NSCLC = test system: EKVX NSCLC
HCC-2998 colon = test system: HCC-2998 colon
HCT-116 colon = test system: HCT-116 colon
HCT-15 colon = test system: HCT-15 colon
HL-60(TB) leukemia = test system: HL-60(TB) leukemia
HOP-62 NSCLC = test system: HOP-62 NSCLC
HOP-92 NSCLC = test system: HOP-92 NSCLC
HS 578T breast = test system: HS 578T breast
HT29 colon = test system: HT29 colon
IGROV1 ovarian = test system: IGROV1 ovarian
K-562 leukemia = test system: K-562 leukemia
KM12 colon = test system: KM12 colon
LOX IMVI melanoma = test system: LOX IMVI melanoma
M14 melanoma = test system: M14 melanoma
MALME-3M melanoma = test system: MALME-3M melanoma
MCF7 breast = test system: MCF7 breast
MDA-MB-435 = test system: MDA-MB-435
MDA-MB-468 breast = test system: MDA-MB-468 breast
MOLT-4 leukemia = test system: MOLT-4 leukemia
NCI-H226 lung = test system: NCI-H226 lung
NCI-H23 lung = test system: NCI-H23 lung
NCI-H460 lung = test system: NCI-H460 lung
NCI-H522 lung = test system: NCI-H522 lung
NCI/ADR-RES ovarian = test system: NCI/ADR-RES ovarian
OVCAR-3 ovarian = test system: OVCAR-3 ovarian
OVCAR-4 ovarian = test system: OVCAR-4 ovarian
OVCAR-5 ovarian = test system: OVCAR-5 ovarian
OVCAR-8 ovarian = test system: OVCAR-8 ovarian
PC-3 prostate = test system: PC-3 prostate
RPMI-8226 leukemia = test system: RPMI-8226 leukemia
RXF 393 renal = test system: RXF 393 renal
SF-268 CNS = test system: SF-268 CNS
SF-295 CNS = test system: SF-295 CNS
SF-539 CNS = test system: SF-539 CNS
SK-MEL-2 melanoma = test system: SK-MEL-2 melanoma
SK-MEL-28 melanoma = test system: SK-MEL-28 melanoma
SK-MEL-5 melanoma = test system: SK-MEL-5 melanoma
SK-OV-3 ovarian = test system: SK-OV-3 ovarian
SN12C renal = test system: SN12C renal
SNB-19 CNS = test system: SNB-19 CNS
SNB-75 CNS = test system: SNB-75 CNS
SW-620 colon = test system: SW-620 colon
T-47D breast = test system: T-47D breast
TK-10 renal = test system: TK-10 renal
U251 CNS = test system: U251 CNS
UACC-257 melanoma = test system: UACC-257 melanoma
UACC-62 melanoma = test system: UACC-62 melanoma

SMILES: COc1ccc2[nH]c(=O)c(CSc3nccc(-c4ccc(Cl)cc4)n3)cc2c1
- GI50 (786-0 renal): 13.8 µM
- TGI (786-0 renal): 26.7 µM
- GI50 (A498 renal): 23.8 µM
- TGI (A498 renal): 63 µM
- GI50 (A549 NSCLC): 14.6 µM
- TGI (A549 NSCLC): 30.8 µM
- GI50 (ACHN renal): 16.8 µM
- TGI (ACHN renal): 40.1 µM
- GI50 (BT-549 breast): 20 µM
- TGI (BT-549 breast): > 100 µM
- GI50 (CAKI-1 renal): 15.8 µM
- TGI (CAKI-1 renal): 37.7 µM
- GI50 (CCRF-CEM leukemia): 77.1 µM
- TGI (CCRF-CEM leukemia): > 100 µM
- GI50 (COLO 205 colon): 23.9 µM
- TGI (COLO 205 colon): 61.7 µM
- GI50 (DU-145 prostate): 26 µM
- TGI (DU-145 prostate): > 100 µM
- GI50 (EKVX NSCLC): 31.2 µM
- TGI (EKVX NSCLC): > 100 µM
- GI50 (HCC-2998 colon): 22.5 µM
- TGI (HCC-2998 colon): 56.3 µM
- GI50 (HCT-116 colon): 13 µM
- TGI (HCT-116 colon): 26.8 µM
- GI50 (HCT-15 colon): 22 µM
- TGI (HCT-15 colon): 65.8 µM
- GI50 (HL-60(TB) leukemia): > 100 µM
- TGI (HL-60(TB) leukemia): > 100 µM
- GI50 (HOP-62 NSCLC): 16.5 µM
- TGI (HOP-62 NSCLC): 34.3 µM
- GI50 (HOP-92 NSCLC): 6.22 µM
- TGI (HOP-92 NSCLC): 32.5 µM
- GI50 (HS 578T breast): 26 µM
- TGI (HS 578T breast): > 100 µM
- GI50 (HT29 colon): 28.9 µM
- TGI (HT29 colon): > 100 µM
- GI50 (IGROV1 ovarian): 25.5 µM
- TGI (IGROV1 ovarian): 89.7 µM
- GI50 (K-562 leukemia): 27.8 µM
- TGI (K-562 leukemia): > 100 µM
- GI50 (KM12 colon): 29.2 µM
- TGI (KM12 colon): 90.9 µM
- GI50 (LOX IMVI melanoma): 17.1 µM
- TGI (LOX IMVI melanoma): 34.2 µM
- GI50 (M14 melanoma): 17.6 µM
- TGI (M14 melanoma): 34.2 µM
- GI50 (MALME-3M melanoma): 18.6 µM
- TGI (MALME-3M melanoma): 38.6 µM
- GI50 (MCF7 breast): 17 µM
- TGI (MCF7 breast): 33.5 µM
- GI50 (MDA-MB-435): 30 µM
- TGI (MDA-MB-435): > 100 µM
- GI50 (MDA-MB-468 breast): 12.5 µM
- TGI (MDA-MB-468 breast): 26.1 µM
- GI50 (MOLT-4 leukemia): 12 µM
- TGI (MOLT-4 leukemia): > 100 µM
- GI50 (NCI-H226 lung): 18.5 µM
- TGI (NCI-H226 lung): 59.9 µM
- GI50 (NCI-H23 lung): 18.9 µM
- TGI (NCI-H23 lung): 42.5 µM
- GI50 (NCI-H460 lung): 17.2 µM
- TGI (NCI-H460 lung): 35.4 µM
- GI50 (NCI-H522 lung): 14.8 µM
- TGI (NCI-H522 lung): 28.5 µM
- GI50 (NCI/ADR-RES ovarian): 15.4 µM
- TGI (NCI/ADR-RES ovarian): 38.7 µM
- GI50 (OVCAR-3 ovarian): 18.6 µM
- TGI (OVCAR-3 ovarian): 39.1 µM
- GI50 (OVCAR-4 ovarian): 18.5 µM
- TGI (OVCAR-4 ovarian): 64.9 µM
- GI50 (OVCAR-5 ovarian): 24.7 µM
- TGI (OVCAR-5 ovarian): 93 µM
- GI50 (OVCAR-8 ovarian): 16.8 µM
- TGI (OVCAR-8 ovarian): 32.4 µM
- GI50 (PC-3 prostate): 19 µM
- TGI (PC-3 prostate): > 100 µM
- GI50 (RPMI-8226 leukemia): 11.7 µM
- TGI (RPMI-8226 leukemia): 39.5 µM
- GI50 (RXF 393 renal): 14.4 µM
- TGI (RXF 393 renal): 28.5 µM
- GI50 (SF-268 CNS): 25.4 µM
- TGI (SF-268 CNS): > 100 µM
- GI50 (SF-295 CNS): 14.4 µM
- TGI (SF-295 CNS): 28.4 µM
- GI50 (SF-539 CNS): 14.9 µM
- TGI (SF-539 CNS): 29.7 µM
- GI50 (SK-MEL-2 melanoma): 18.1 µM
- TGI (SK-MEL-2 melanoma): 44 µM
- GI50 (SK-MEL-28 melanoma): 20.6 µM
- TGI (SK-MEL-28 melanoma): 51.6 µM
- GI50 (SK-MEL-5 melanoma): 13.6 µM
- TGI (SK-MEL-5 melanoma): 31.3 µM
- GI50 (SK-OV-3 ovarian): 39.3 µM
- TGI (SK-OV-3 ovarian): > 100 µM
- GI50 (SN12C renal): 15.2 µM
- TGI (SN12C renal): 32.9 µM
- GI50 (SNB-19 CNS): 18 µM
- TGI (SNB-19 CNS): 43.5 µM
- GI50 (SNB-75 CNS): 23.7 µM
- TGI (SNB-75 CNS): 65.1 µM
- GI50 (SW-620 colon): 20.6 µM
- TGI (SW-620 colon): 45.9 µM
- GI50 (T-47D breast): 13.7 µM
- TGI (T-47D breast): 31 µM
- GI50 (TK-10 renal): 16.6 µM
- TGI (TK-10 renal): 36.1 µM
- GI50 (U251 CNS): 15.2 µM
- TGI (U251 CNS): 28.8 µM
- GI50 (UACC-257 melanoma): 22.2 µM
- TGI (UACC-257 melanoma): 55.6 µM
- GI50 (UACC-62 melanoma): 15.3 µM
- TGI (UACC-62 melanoma): 78.3 µM
